Data taken from publication PMC12777510 (Chempluschem, 2025).
≈ marks a conversion by molar mass, not a printed value. *1 amine or outer side, *2 acyl side, *3 side chain or, on linkers, in order; H or OH if unused. Where a SMILES comes first, the peptide text is derived from it. [ ]: non-standard residue; d: D form. X1 = O=C(C[C@@H](CCCCCCCCCCC(F)(F)F)N[*:1])[*:2]

Details: 19F NMR samples in D2O containing Saboraud Dextrose Broth (30 g/L), 5% d6-DMSO added to avoid precipitation

With `NC(=O)CC[C@@H]1NC(=O)[C@@H](CC(N)=O)NC(=O)[C@@H](Cc2ccc(O)cc2)NC(=O)[C@H](CC(N)=O)NC(=O)C[C@@H](CCCCCCCCCCC(F)(F)F)NC(=O)[C@H](CO)NC(=O)[C@@H](CC(N)=O)NC(=O)[C@@H]2CCCN2C1=O` [Compound 9, ω‐CF3 iturin A2] (cyclo(N[dY][dN]QP[dN]S[X1])) as the compound, how does the aqueous solubility read?
Its aqueous solubility is 100 µM (≈ 110 µg/mL).
